Columns and labels:
[1] = system: bedstraw; experiment: Test B pre/postemergence bedstraw; type: in vivo, Galium aparine; conditions: Postemergence
Procedure, shortened: (§1)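 Herbicidal effect was estimated by eye on a ten-point control scale after plants spent twelve to sixteen days in a greenhouse following soil or foliar treatment. Foliar sprays targeted plants at one to four leaves; all doses were formulated in a non-phytotoxic solvent with surfactant.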

[2] = system: blackgrass; experiment: Test B pre/postemergence blackgrass; type: in vivo, Alopecurus myosuroides
Procedure, shortened: as §1

[3] = system: surinam grass; experiment: Test B pre/postemergence surinam grass; type: in vivo, Brachiaria decumbens
Procedure, shortened: as §1

[4] = system: cocklebur; experiment: Test B pre/postemergence cocklebur; type: in vivo, Xanthium strumarium
Procedure, shortened: as §1

[5] = system: corn; experiment: Test B pre/postemergence corn; type: in vivo, Zea mays
Procedure, shortened: as §1

[6] = system: crabgrass; experiment: Test B pre/postemergence crabgrass; type: in vivo, Digitaria sanguinalis
Procedure, shortened: as §1

[7] = system: giant foxtail; experiment: Test B pre/postemergence giant foxtail; type: in vivo, Setaria faberii
Procedure, shortened: as §1

[8] = system: morningglory; experiment: Test B pre/postemergence morningglory; type: in vivo, Ipomoea hederacea
Procedure, shortened: as §1

[9] = system: pigweed; experiment: Test B pre/postemergence pigweed; type: in vivo, Amaranthus retroflexus
Procedure, shortened: as §1

[10] = system: rape; experiment: Test B pre/postemergence rape; type: in vivo, Brassica napus
Procedure, shortened: as §1

[11] = system: soybean; experiment: Test B pre/postemergence soybean; type: in vivo, Glycine max
Procedure, shortened: as §1

[12] = system: sugar beet; experiment: Test B pre/postemergence sugar beet; type: in vivo, Beta vulgaris
Procedure, shortened: as §1

[13] = system: velvetleaf; experiment: Test B pre/postemergence velvetleaf; type: in vivo, Abutilon theophrasti
Procedure, shortened: as §1

[14] = system: wheat; experiment: Test B pre/postemergence wheat; type: in vivo, Triticum aestivum
Procedure, shortened: as §1

[15] = system: wild oat; experiment: Test B pre/postemergence wild oat; type: in vivo, Avena fatua
Procedure, shortened: as §1

[16] = system: purple nutsedge; experiment: Test B pre/postemergence purple nutsedge; type: in vivo, Cyperus rotundus
Procedure, shortened: as §1

[17] = system: rice; experiment: Test B flood test rice; type: in vivo, Oryza sativa
Procedure, shortened: (§2)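 Flood test on plants grown to the 2-leaf stage; treated plants kept in greenhouse twelve to sixteen days, then visually rated against controls on a 0 (no effect) to 10 (complete control) scale.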

[18] = system: smallflower flatsedge; experiment: Test B flood test smallflower flatsedge; type: in vivo, Cyperus difformis
Procedure, shortened: as §2

[19] = system: duck salad; experiment: Test B flood test duck salad; type: in vivo, Heteranthera limosa
Procedure, shortened: as §2

[20] = system: bamyardgrass; experiment: Test B flood test barnyardgrass; type: in vivo, Echinochloa crus-galli
Procedure, shortened: as §2

[21] = Postemergence, Rate 125 g/ha, scale 0 to 10, 0 is no effect, 10 is complete control
[22] = Postemergence, Rate 250 g/ha, scale 0 to 10
[23] = Postemergence, Rate 500 g/ha, scale 0 to 10, 0 is no effect, 10 is complete control
[24] = Preemergence, Rate 62 g/ha, scale of 0 to 10 where 0 is no effect and 10 is complete control
[25] = Preemergence, Rate 125 g/ha, scale 0 to 10, 0 is no effect, 10 is complete control
[26] = Preemergence, Rate 250 g/ha, scale 0 to 10, 0 is no effect, 10 is complete control
[27] = Preemergence, Rate 500 g/ha, scale 0 to 10, 0 is no effect, 10 is complete control
[28] = Rate 62 g/ha, Postemergence, scale 0 to 10 (0 no effect, 10 complete control)
[29] = Rate 62 g/ha, flood test species, Pre-emergence, visual evaluation after twelve to sixteen days
[30] = Rate 125 g/ha, under heading Pre-emergence, flood test species, visual evaluation after twelve to sixteen days
[31] = Rate 250 g/ha, Pre-emergence (flood test species), scale 0 to 10, 0 is no effect, 10 is complete control
[32] = Rate 500 g/ha, Pre-emergence section of Table B, 0 to 10 scale (0 no effect, 10 complete control)

CC(C)C(=O)Cn1c(=O)on(C(=O)N(c2ccc(Cl)cc2)C(C)C)c1=O [Compound 487]
Bedstraw plant response rating ([1]; Rate 125 g/ha, scale 0 to 10, 0 is no effect, 10 is complete control): 2 | Bedstraw plant response rating ([1]; Rate 250 g/ha, scale 0 to 10): 6 | Plant response rating, Bedstraw ([1]; Rate 500 g/ha, scale 0 to 10, 0 is no effect, 10 is complete control): 6 | Bedstraw plant response rating ([1]; Rate 62 g/ha, scale 0 to 10 (0 no effect, 10 complete control)): 0 | Blackgrass plant response rating [2, 21]: 0 | Blackgrass plant response rating [2, 22]: 0 | Plant response rating, Blackgrass [2, 23]: 1 | Plant response rating, Blackgrass [2, 24]: 2 | Blackgrass plant response rating [2, 25]: 3 | Blackgrass plant response rating [2, 26]: 7 | Blackgrass plant response rating [2, 27]: 9 | Blackgrass plant response rating [2, 28]: 0 | B. signalgrass plant response rating [3, 21]: 0 | B. signalgrass plant response rating ([3]; Postemergence, Rate 250 g/ha, scale 0 to 10, 0 no effect, 10 complete control): 0 | Plant response rating, B. signalgrass [3, 23]: 0 | Plant response rating, B. signalgrass [3, 24]: 3 | B. signalgrass plant response rating [3, 25]: 3 | B. signalgrass plant response rating [3, 26]: 3 | B. signalgrass plant response rating [3, 27]: 5 | B. signalgrass plant response rating [3, 28]: 0 | Cocklebur plant response rating [4, 21]: 0 | Cocklebur plant response rating [4, 22]: 0 | Plant response rating, Cocklebur [4, 23]: 0 | Plant response rating, Cocklebur [4, 24]: 0 | Cocklebur plant response rating [4, 26]: 0 | Cocklebur plant response rating [4, 27]: 0 | Cocklebur plant response rating [4, 28]: 0 | Corn plant response rating [5, 21]: 0 | Corn plant response rating [5, 22]: 0 | Plant response rating, Corn [5, 23]: 0 | Plant response rating, Corn [5, 24]: 0 | Corn plant response rating [5, 25]: 0 | Corn plant response rating [5, 27]: 0 | Corn plant response rating [5, 28]: 0 | Crabgrass plant response rating [6, 21]: 3 | Crabgrass plant response rating [6, 22]: 5 | Plant response rating, Crabgrass [6, 23]: 5 | Plant response rating, Crabgrass [6, 24]: 6 | Crabgrass plant response rating [6, 25]: 9 | Crabgrass plant response rating [6, 27]: 10 | Crabgrass plant response rating [6, 28]: 0 | Giant foxtail plant response rating [7, 21]: 2 | Plant response rating, Giant foxtail [7, 23]: 8 | Plant response rating, Giant foxtail [7, 24]: 9 | Giant foxtail plant response rating [7, 25]: 9 | Giant foxtail plant response rating [7, 27]: 10 | Giant foxtail plant response rating [7, 28]: 0 | Morningglory plant response rating [8, 21]: 10 | Plant response rating, Morningglory [8, 23]: 10 | Plant response rating, Morningglory [8, 24]: 0 | Morningglory plant response rating [8, 25]: 0 | Morningglory plant response rating [8, 27]: 0 | Morningglory plant response rating [8, 28]: 2 | Redroot pigweed plant response rating [9, 21]: 2 | Plant response rating, Redroot pigweed [9, 23]: 3 | Plant response rating, Redroot pigweed [9, 24]: 1 | Redroot pigweed plant response rating [9, 25]: 8 | Redroot pigweed plant response rating [9, 27]: 10 | Redroot pigweed plant response rating [9, 28]: 0 | Rape plant response rating [10, 21]: 0 | Plant response rating, Rape [10, 23]: 3 | Plant response rating, Rape [10, 24]: 0 | Rape plant response rating [10, 25]: 0 | Rape plant response rating [10, 27]: 0 | Rape plant response rating [10, 28]: 0 | Soybean plant response rating [11, 21]: 4 | Plant response rating, Soybean [11, 23]: 5 | Plant response rating, Soybean [11, 24]: 0 | Soybean plant response rating [11, 25]: 0 | Soybean plant response rating [11, 27]: 0 | Soybean plant response rating [11, 28]: 3 | Sugarbeets plant response rating [12, 21]: 0 | Plant response rating, Sugarbeets [12, 23]: 0 | Plant response rating, Sugarbeets [12, 24]: 0 | Sugarbeets plant response rating [12, 25]: 0 | Sugarbeets plant response rating [12, 27]: 0 | Sugarbeets plant response rating [12, 28]: 0 | Velvetleaf plant response rating [13, 21]: 0 | Plant response rating, Velvetleaf [13, 23]: 2 | Plant response rating, Velvetleaf [13, 24]: 0 | Velvetleaf plant response rating [13, 25]: 0 | Velvetleaf plant response rating [13, 27]: 0 | Wheat plant response rating [14, 21]: 0 | Plant response rating, Wheat [14, 23]: 0 | Plant response rating, Wheat [14, 24]: 0 | Wheat plant response rating [14, 25]: 0 | Wheat plant response rating [14, 27]: 0 | Wheat plant response rating [14, 28]: 0 | Wild oats plant response rating [15, 21]: 0 | Plant response rating, Wild oats [15, 23]: 0 | Plant response rating, Wild oats [15, 24]: 0 | Wild oats plant response rating [15, 25]: 0 | Wild oats plant response rating [15, 27]: 6 | Wild oats plant response rating [15, 28]: 0 | Nutsedge plant response rating [16, 21]: 0 | Plant response rating, Nutsedge [16, 23]: 0 | Plant response rating, Nutsedge [16, 24]: 0 | Nutsedge plant response rating [16, 25]: 0 | Nutsedge plant response rating [16, 27]: 0 | Nutsedge plant response rating [16, 28]: 0 | Plant response rating, Rice (0 to 10 scale, 0 is no effect, 10 is complete control) [17, 29]: 0 | Rice plant response rating (0 to 10 scale, 0 is no effect, 10 is complete control) [17, 30]: 0 | Rice plant response rating [17, 31]: 0 | Rice plant response rating [17, 32]: 0 | Plant response rating, S. Flatsedge (0 to 10 scale, 0 is no effect, 10 is complete control) [18, 29]: 0 | S. Flatsedge plant response rating (0 to 10 scale, 0 is no effect, 10 is complete control) [18, 30]: 0 | S. Flatsedge plant response rating [18, 31]: 0 | S. Flatsedge plant response rating [18, 32]: 0 | Plant response rating, Ducksalad (0 to 10 scale, 0 is no effect, 10 is complete control) [19, 29]: 0 | Ducksalad plant response rating (0 to 10 scale, 0 is no effect, 10 is complete control) [19, 30]: 0 | Ducksalad plant response rating [19, 31]: 0 | Ducksalad plant response rating [19, 32]: 0 | Plant response rating, Barnyardgrass (0 to 10 scale, 0 is no effect, 10 is complete control) [20, 29]: 0 | Barnyardgrass plant response rating (0 to 10 scale, 0 is no effect, 10 is complete control) [20, 30]: 0 | Barnyardgrass plant response rating [20, 31]: 0 | Barnyardgrass plant response rating [20, 32]: 0

From patent publication US6737383B1, “Herbicidal oxadiazolidines” (priority 1999, dated 2004)
